Here are results for 15 compounds from patent US8987250B2 (Gilead Sciences, Inc., priority 2012, dated 2015).

Read-outs that look alike come from different tables or passages of the source.

The subject of this assay is HIV-IIIb. The experiment in a line: Test A: Antiviral Assay in MT4 Cells. In kind it is cell-based. The note with it: Human immunodeficiency virus 1, IIIB, MT4, 120 h, MT-4 cells infected with HIV-IIIb, 5 days of incubation, CellTiter-Glo, read-out: EC50. The essentials: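 Read-out: CellTiter-Glo chemiluminescence after 5-day incubation at 37 °C. Compounds tested as 3-fold serial dilutions (10 concentrations, quadruplicate) in RPMI 1640 with 10% FBS, on MT-4 cells pre-infected at 37 °C with HIV-IIIb at 0.004 m.o.i.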

In the case of `Cc1cc2nc(-c3cccc(-c4cnc(N(C)C)nc4)c3)sc2c(-c2ccc(Cl)cc2)c1[C@H](OC(C)(C)C)C(=O)O` [Compound 142], the EC50 (Table 1) worked out at 48 nM.
On to `Cc1cc2nc(N3Cc4ccncc4C3)sc2c(-c2ccc(Cl)cc2)c1[C@H](OC(C)(C)C)C(=O)O` [Compound 432], for which the concentration for a half-maximal effect (EC50) (Table 2) worked out at 18 nM.
For `COc1ccc(-c2nccc(-c3nc4cc(C)c([C@H](OC(C)(C)C)C(=O)O)c(-c5ccc(Cl)cc5)c4s3)n2)cc1OC` [Compound 203, (S)-2-tert-butoxy-2-(7-(4-chlorophenyl)-2-(2-(3,4-dimethoxyphenyl)pyrimidin-4-yl)-5-methylbenzo[d]thiazol-6-yl)acetic acid], for the setting “Table 2”, the EC50 was 12 nM.
Turning to `Cc1cc2nc(-c3ccc4nc(C)n([C@@H]5CCN(C)C5)c4c3)sc2c(-c2ccc(Cl)cc2)c1[C@H](OC(C)(C)C)C(=O)O` [Compound 296, (S)-2-tert-butoxy-2-(7-(4-chlorophenyl)-5-methyl-2-(2-methyl-1-((R)-1-methylpyrrolidin-3-yl)-1H-benzo[d]imidazol-6-yl)benzo[d]thiazol-6-yl)acetic acid], where the note is “Table 2”, the half-maximal effective concentration (EC50) came out at 13 nM.
On the same count and under the same terms, as for `Cc1cc2nc(-c3ccnc(-c4cccc5c4CC(=O)N5C)c3)sc2c(-c2ccc(Cl)cc2)c1[C@H](OC(C)(C)C)C(=O)O` [Compound 236, (S)-2-tert-butoxy-2-(7-(4-chlorophenyl)-5-methyl-2-(2-(1-methyl-2-oxoindolin-4-yl)pyridin-4-yl)benzo[d]thiazol-6-yl)acetic acid], the figure is 31 nM.
Turning to `Cc1cc2nc(N3Cc4ccccc4C3)sc2c(-c2ccc(Cl)cc2)c1[C@H](OC(C)(C)C)C(=O)O` [Compound 439], where the note is “Table 2”, the 50% effective concentration (EC50) worked out at 20 nM.
On the same count and under the same terms, in the case of `Cc1cc2nc(-c3ccnc(-c4cnc5c(c4)cc(C)n5C)c3)sc2c(-c2ccc(Cl)cc2)c1[C@H](OC(C)(C)C)C(=O)O` [Compound 196, (S)-2-tert-butoxy-2-(7-(4-chlorophenyl)-2-(2-(1,2-dimethyl-1H-pyrrolo[2,3-b]pyridin-5-yl)pyridine-4-yl)-5-methylbenzo[d]thiazol-6-yl)acetic acid] it was 33 nM.
With `Cc1cc2nc(-c3ccnc(-c4ccc5c(cnn5C)n4)c3)sc2c(-c2ccc(Cl)cc2)c1[C@H](OC(C)(C)C)C(=O)O` [Compound 180, (S)-2-tert-butoxy-2-(7-(4-chlorophenyl)-5-methyl-2-(2-(1-methyl-1H-pyrazolo[4,3-b]pyridin-5-yl)pyridin-4-yl)benzo[d]thiazol-6-yl)acetic acid], the EC50 (Table 2) was 5 nM.
Turning to `COc1ccncc1-c1cccc(-c2nc3cc(C)c([C@H](OC(C)(C)C)C(=O)O)c(-c4ccc(Cl)cc4)c3s2)c1` [Compound 161], the 50% effective concentration (EC50) (Table 1) was 116 nM.
On to `Cc1cc2nc(-c3ccc4nc(C)n([C@H]5CCNC5)c4c3)sc2c(-c2ccc(Cl)cc2)c1[C@H](OC(C)(C)C)C(=O)O` [Compound 301, (S)-2-tert-butoxy-2-(7-(4-chlorophenyl)-5-methyl-2-(2-methyl-1-((S)-pyrrolidin-3-yl)-1H-benzo[d]imidazol-6-yl)benzo[d]thiazol-6-yl)acetic acid], for which, for the setting “Table 2”, the concentration for a half-maximal effect (EC50) was 109 nM.
Same read-out and setting: in the case of `Cc1cc2nc(-c3ccnc(-c4ccc5c(c4)[nH]c(=O)n5C)c3)sc2c(-c2ccc(Cl)cc2)c1[C@H](OC(C)(C)C)C(=O)O` [Compound 463] it was 52 nM.
Same read-out and setting: in the case of `Cc1cc2nc(-c3ccnc(-c4ccc5c(cnn5C)c4C)c3)sc2c(-c2ccc(Cl)cc2)c1[C@H](OC(C)(C)C)C(=O)O` [Compound 417] it was 18 nM.
Regarding `Cc1cc2nc(-c3ccnc(-c4cc5cnn(C)c5cn4)c3)sc2c(-c2ccc(Cl)cc2)c1[C@H](OC(C)(C)C)C(=O)O` [Compound 369], the 50% effective concentration (EC50) (Table 2) was 8 nM.
The same measure, in the same setting: in the case of `Cc1cc2nc(C3CC=Cc4nn(C)cc43)sc2c(-c2ccc(Cl)cc2)c1[C@H](OC(C)(C)C)C(=O)O` (stereo partly drawn) [Compound 384] it was 332 nM.
For the compound `COc1ccc(-c2cc(-c3nc4cc(C)c([C@H](OC(C)(C)C)C(=O)O)c(-c5ccc(Cl)cc5)c4s3)c(C)nn2)cc1OC` [Compound 331], for the setting “Table 2”, the 50% effective concentration (EC50) is 44 nM.
